Where “and” joins values, the source holds several entries; their conditions need not be identical. Equal entries are not always repeated. Marks after values point to notes of the source that are not given here.
Key:
[1] = test system: PD-L1 mRNA; assay: siRNA knockdown, PD-L1 mRNA by quantitative PCR in H520 cells; format: cell-based, human; conditions: 48 hours after siRNA introduction, relative value with control siRNA = 1, n = 4
Protocol: (§1) The suppression of mRNA expression of PD-L1 or LAT1 at the transcriptional level was attempted using siRNA. WiDr cells (derived from human colon-adenocarcinoma), SKN cells (human uterine leiomyosarcoma cells), and H520 cells (human pulmonary squamous cell carcinoma cells) were seeded in culture dishes. siRNA that suppresses the mRNA expression of PD-L1, siRNA that suppresses the mRNA expression of LAT1, or a control siRNA was introduced into cells. As the siRNA, Silencer (registered trademark) Select siRNAs of the Ambion (registered trademark) series from Thermo Fisher Scientific K.K. Specifically, siPD-L1 #2 (siRNA ID: s26548) set forth in SEQ ID NOs: 1 and 2 was used as the siRNA for suppressing the mRNA expression of PD-L1, siLAT1 #3 (siRNA ID: s15653) set forth in SEQ ID NOs: 3 and 4 was used as the siRNA for suppressing the mRNA expression of LAT1, and Silencer Select Negative control #2 (Cat #: 390847) was used as the control siRNA. Cells were collected 48 hours later, when the suppression effect on expression tends to be prominent, and mRNA expression levels of LAT1 and PD-L1 per cell were analyzed by quantitative PCR.
(§2) In Table 7, the mRNA expression levels per cell are expressed as relative values, with the mRNA expression level in the cells, to which the control siRNA was introduced, being 1. […]

[2] = test system: PD-L1 mRNA; assay: siRNA knockdown, PD-L1 mRNA by quantitative PCR in SKN cells; format: cell-based, human; conditions: 48 hours after siRNA introduction, relative value with control siRNA = 1, n = 4
Protocol: as §1, §2

[3] = test system: LAT1 mRNA; assay: siRNA knockdown, LAT1 mRNA by quantitative PCR in SKN cells; format: cell-based, human; conditions: 48 hours after siRNA introduction, relative value with control siRNA = 1, n = 4
Protocol: as §1, §2

[4] = test system: LAT1 mRNA; assay: siRNA knockdown, LAT1 mRNA by quantitative PCR in H520 cells; format: cell-based, human; conditions: 48 hours after siRNA introduction, relative value with control siRNA = 1, n = 4
Protocol: as §1, §2

[5] = test system: PD-L1 mRNA; assay: siRNA knockdown, PD-L1 mRNA by quantitative PCR in WiDr cells; format: cell-based, human; conditions: 48 hours after siRNA introduction, relative value with control siRNA = 1, n = 4
Protocol: as §1, §2

[6] = test system: LAT1 mRNA; assay: siRNA knockdown, LAT1 mRNA by quantitative PCR in WiDr cells; format: cell-based, human; conditions: 48 hours after siRNA introduction, relative value with control siRNA = 1, n = 4
Protocol: as §1, §2

[7] = test system: PD-L1 mRNA; assay: Change of PD-L1 expression level by JPH2O3, quantitative PCR in OST cells; format: cell-based, human; conditions: 30 μM, 24 hours treatment
Protocol: (§3) The LAT1 activity was suppressed using an inhibitor JPH2O3 instead of the gene suppression using siRNA, and it was examined whether results similar to Test Example 5 would be obtained. JPH2O3 is O-(5-amino-2-phenylbenzoxazol-7-yl)methyl-3,5-dichloro-L-tyrosine. HuccT1 cells (derived from human bile duct cancer) and OST cells (derived from human fibrosarcoma of bone) were seeded in culture dishes. After treatment with 30 μM of JPH2O3 (LAT1 selective inhibitor) for 24 hours, cells were collected and mRNA expression levels of PD-L1 were analyzed by quantitative PCR.
(§4) In Table 8, the mRNA expression levels per cell are expressed as relative values, with the expression level of the control that was not treated with JPH2O3 being 1. In both HuccT1 cells and OST cells, the expression of PD-L1 was increased. […] Moreover, since the inhibition of LAT1 increased the expression of PD-L1, it is considered that the LAT1 inhibition therapy can increase the expression level of PD-L1 as well as reduce the expression level or activity of LAT1 in patients. In other words, it is considered that the expression level of PD-L1 in patients can be brought close to those in patients of the P-predominance type by the LAT1 inhibition therapy.

[8] = test system: PD-L1 mRNA; assay: Change of PD-L1 expression level by JPH2O3, quantitative PCR in HuccT1 cells; format: cell-based, human; conditions: 30 μM, 24 hours treatment
Protocol: as §3, §4

[9] = test system: advanced non-small cell lung cancers (Stage III/IV); assay: Response to nivolumab in non-small cell lung cancer patients, determined by CT in accordance with RECIST; format: in vivo, human
Protocol: Cancer tissues were collected from 21 patients with first line anticancer therapy resistant/relapsed advanced non-small cell lung cancers (Stage III/IV) incorporated in this examination, and the expressions of LAT1 and PD-L1 were examined by immunohistochemistry using an anti-LAT1 antibody and an anti-PD-L1 antibody. Tumors were determined as positive when the cell membrane of the tumors, together with PD-L1 and LAT1, were stained. Tumors having 10% or more of PD-L1-positive cells were defined as having high PD-L1 expression, and tumors having 25% or more of LAT1-positive cells were defined as having high LAT1 expression.
The response rate was evaluated in accordance with the international criteria for which the tumor sizes are measured by CT and the tumors are classified into response, progression, or stable. The response refers to cases where 30% or more decrease is observed in the longer axis of the tumor after the administration of the agent. The progression refers to cases where the 20% or more increase is observed in the longer axis of the tumor after the administration of the agent. The stable refers to cases where the shrinkage of the tumor is insufficient to classify it as response and the increase of the tumor in comparison with the minimum sum of the longest axis after the start of the therapy is insufficient to classify it as progression.

[10] = relative value with untreated control = 1, n = 4
[11] = relative value with untreated control = 1, n = 4, listed as JPH2O3
[12] = PD-L1 high expression group (8 patients), RECIST
[13] = PD-L1 low expression group (13 patients), RECIST
[14] = high LAT1 expression group (9 patients), RECIST
[15] = low LAT1 expression group (12 patients), RECIST
[16] = single patient of FIG. 8, high PD-L1 and low LAT1 expression

si-LAT1: Silencer Select siRNA set forth in SEQ ID NOs: 3 and 4, suppressing the mRNA expression of LAT1 (chain 1 UGUCCAAUCUAGAUCCCAATT; chain 2 UUGGGAUCUAGAUUGGACACA; chemistry not given here)
PD-L1 mRNA expression level [1]: 0.82*** | PD-L1 mRNA expression level [2]: 1.04*** | LAT1 mRNA expression level [3]: 0.06 | LAT1 mRNA expression level [4]: 0.11 | PD-L1 mRNA expression level [5]: 1.82*** | LAT1 mRNA expression level [6]: 0.11

Nc1cc(COc2c(Cl)cc(C[C@H](N)C(=O)O)cc2Cl)c2oc(-c3ccccc3)nc2c1 [JPH203, O-(5-amino-2-phenylbenzoxazol-7-yl)methyl-3,5-dichloro-L-tyrosine]
PD-L1 mRNA expression level [7, 10]: 2.79* | PD-L1 mRNA expression level [7, 11]: increased | PD-L1 mRNA expression level [8, 10]: 12.26** | PD-L1 mRNA expression level [8, 11]: increased

si-PD-L1: Silencer Select siRNA set forth in SEQ ID NOs: 1 and 2, suppressing the mRNA expression of PD-L1 (chain 1 GGACUCACUUGGUAAUUCUTT; chain 2 AGAAUUACCAAGUGAGUCCTT; chemistry not given here)
PD-L1 mRNA expression level [1]: 0.37 | PD-L1 mRNA expression level [2]: 0.24 | LAT1 mRNA expression level [3]: 1.52*** | LAT1 mRNA expression level [4]: 2.29*** | PD-L1 mRNA expression level [5]: 0.46 | LAT1 mRNA expression level [6]: 5.01***

nivolumab
patients exhibited a response [9, 12]: 4 patients | patients exhibited progression [9, 12]: 1 patient | patients exhibited a response [9, 13]: 3 patients | patients exhibited progression [9, 13]: 7 patients | patients exhibited a response ([9]; all 21 patients): 7 patients | patients exhibited no response ([9]; all 21 patients): 14 patients | patients exhibited progression ([9]; all 21 patients): 7 patients | response rate ([9]; all 21 patients): 33% | patients exhibited a response [9, 14]: 1 patient | patients exhibited progression [9, 14]: 6 patients and 5 patients | patients exhibited a response [9, 15]: 4 patients and 6 patients | patients exhibited progression [9, 15]: 3 patients and 2 patients | outcome of nivolumab treatment [9, 16]: responded | progression-free survival [9, 16]: ≥ 10 months | outcome of nivolumab treatment ([9]; single patient of FIG. 9, high LAT1 and low PD-L1 expression): progression | outcome of nivolumab treatment ([9]; single patient of FIG. 10, high PD-L1 and high LAT1 expression): progression

Source: patent US11899019B2, “Method for predicting efficacy of anti-PD-1 antibody or anti-PD-L1 antibody therapy, method for evaluating cancer grade, and method for enhancing efficacy of anti-PD-1 antibody or anti-PD-L1 antibody therapy” (J-Pharma Co., Ltd., priority 2017, dated 2024)
